Assay [1] deals with T1, DA uptake, rat striatum synaptosomes (Rattus norvegicus, UniProt P23977).
T1 construct: into rat striatum synaptosomes; from tissue; host or cells: rat striatum synaptosomes
The assay is described as follows: Inhibition of [3H]-DA uptake into synaptosomes. In kind it is biochemical. The conditions noted are these: for inhibition at 10 µM: read-out: Monoamine Uptake Inhibition, DA, % inhib. at 10 μM; for IC50: read-out: Monoamine Uptake Inhibition, DA, IC50.

Assay [2] concerns the target T2, human muscarinic receptor M4 (Homo sapiens, UniProt P08173).
T2 construct: expressed in transfected cells; host or cells: CHO cells (membranes)
T2 sequence (P08173 1-479): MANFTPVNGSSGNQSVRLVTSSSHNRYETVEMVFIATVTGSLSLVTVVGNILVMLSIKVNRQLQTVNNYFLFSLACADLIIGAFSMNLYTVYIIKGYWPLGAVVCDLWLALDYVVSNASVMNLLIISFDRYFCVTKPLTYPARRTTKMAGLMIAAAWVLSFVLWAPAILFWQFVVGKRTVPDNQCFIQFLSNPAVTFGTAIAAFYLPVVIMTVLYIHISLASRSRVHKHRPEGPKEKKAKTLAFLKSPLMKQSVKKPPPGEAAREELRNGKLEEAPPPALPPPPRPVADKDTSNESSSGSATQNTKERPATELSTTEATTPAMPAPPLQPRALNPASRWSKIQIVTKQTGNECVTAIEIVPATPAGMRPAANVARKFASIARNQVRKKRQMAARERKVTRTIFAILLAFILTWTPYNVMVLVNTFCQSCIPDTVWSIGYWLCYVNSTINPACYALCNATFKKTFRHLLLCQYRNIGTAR
The experiment in a line: Muscarinic M4 receptor binding, [3H]4-DAMP. The conditions noted are these: read-out: Affinity for Muscarinic Receptors, M4, Ki. As to the method:
(§1) Protocol. […] Bound radioactivity was determined by scintillation spectroscopy. Non-specific binding was defined as the amount of bound radioligand in the presence of 1.0 μM atropine. Radioligand for the M1 receptor was [^3H]pirenzepine (2 nM). Radioligand for the M2 receptor was [^3H]AF-DX384 (2 nM). Radioligand for the M3, M4, and M5 receptors was [^3H]4-DAMP.

Assay [3] addresses T3, human muscarinic receptor M2 (Homo sapiens, UniProt P08172).
T3 construct: expressed in transfected cells; host or cells: CHO cells (membranes)
T3 sequence (P08172 1-466): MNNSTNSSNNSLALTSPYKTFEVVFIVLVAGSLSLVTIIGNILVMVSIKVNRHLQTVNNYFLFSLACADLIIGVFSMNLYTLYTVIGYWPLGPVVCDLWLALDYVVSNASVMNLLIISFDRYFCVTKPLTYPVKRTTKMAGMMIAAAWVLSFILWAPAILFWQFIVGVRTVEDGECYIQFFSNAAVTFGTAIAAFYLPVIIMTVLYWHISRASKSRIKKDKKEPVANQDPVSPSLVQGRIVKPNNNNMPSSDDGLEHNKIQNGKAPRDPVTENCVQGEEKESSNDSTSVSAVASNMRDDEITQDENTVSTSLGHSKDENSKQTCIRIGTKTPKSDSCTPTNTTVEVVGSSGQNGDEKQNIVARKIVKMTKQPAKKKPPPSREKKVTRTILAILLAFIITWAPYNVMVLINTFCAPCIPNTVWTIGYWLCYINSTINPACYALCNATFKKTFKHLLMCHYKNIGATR
The assay is described as follows: Muscarinic M2 receptor binding, [3H]AF-DX384. The conditions noted are these: read-out: Affinity for Muscarinic Receptors, M2, Ki. The procedure:
as §1

The test system of assay [4] is Sprague-Dawley rats, forced swim behaviour. The assay is described as follows: Rat Forced Swim Test of depression. In kind it is in vivo. As to conditions: for amount of time spent climbing: 3-30 mg/kg IP. The source says: Protocol: Male Sprague-Dawley rats (approximately 200 g) are placed in a tank of room temperature water for a fifteen minute practice swim. Every five seconds during the first five minutes of the practice swim, the rats are rated as immobile (floating with motion needed to keep head above the water), swimming (movement across the swim), or climbing (actively trying to climb out of the tank of water, upward directed movements of the forepaws). The percentage of time the rats spent in each of these responses is calculated.
Approximately 24 h after the practice swim, the rats are treated with vehicle or test compound and placed in the tank for a 5 minute swim. As was the case with the practice swim, the rats are rated as immobile, swimming, or climbing during the test swim and the percentage of time spent in each of these responses is calculated. The data are analyzed by one-way ANOVA with post-hoc analysis to compare the behavioral response after vehicle treatment to the behavioral response after drug treatment for each of the three behavioral responses. The level of significance is set at p<0.05.
The percent of time spent immobile, swimming, and climbing (actively trying to scale the sides of the swim tank) in the test swim is shown in FIGS. 15 A, B, and C.

Assay [5] has as its target T4, human dopamine transporter (hDAT) (Homo sapiens, UniProt Q01959).
T4 construct: expressed in transfected cells; host or cells: CHO cells (membranes)
The assay is described as follows: DA transporter competitive binding assay, [3H]BTCP. The conditions noted are these: for inhibition at 10 µM: read-out: Monoamine Transporter Affinity, DA, % inhib at 10 μM; for Ki: read-out: Monoamine Transporter Affinity, DA, Ki. The procedure:
For the DA transporter binding assay, [^3H]N-[1-(2-benzo[b]thiophenyl)cyclohexyl]-piperidine ([^3H]BTCP) (4.0 nM) was incubated for 2 hr at 4° C. with membranes prepared from Chinese hamster ovary (CHO) cells heterologously expressing the cloned human dopamine transporter (hDAT). Various concentrations of test compound were added and bound radioactivity was determined by scintillation spectroscopy. Non-specific binding was defined as binding that occurred in the presence of 10 μM BTCP. The Ki values for the various test compounds were determined using standard methods.

In assay [6] the target is T5, α1a adrenergic receptor (rat salivary gland membranes) (Rattus norvegicus, UniProt P43140).
T5 construct: tested using membranes prepared from rat salivary gland; from tissue; host or cells: rat salivary gland membranes
T5 sequence (P43140 1-466): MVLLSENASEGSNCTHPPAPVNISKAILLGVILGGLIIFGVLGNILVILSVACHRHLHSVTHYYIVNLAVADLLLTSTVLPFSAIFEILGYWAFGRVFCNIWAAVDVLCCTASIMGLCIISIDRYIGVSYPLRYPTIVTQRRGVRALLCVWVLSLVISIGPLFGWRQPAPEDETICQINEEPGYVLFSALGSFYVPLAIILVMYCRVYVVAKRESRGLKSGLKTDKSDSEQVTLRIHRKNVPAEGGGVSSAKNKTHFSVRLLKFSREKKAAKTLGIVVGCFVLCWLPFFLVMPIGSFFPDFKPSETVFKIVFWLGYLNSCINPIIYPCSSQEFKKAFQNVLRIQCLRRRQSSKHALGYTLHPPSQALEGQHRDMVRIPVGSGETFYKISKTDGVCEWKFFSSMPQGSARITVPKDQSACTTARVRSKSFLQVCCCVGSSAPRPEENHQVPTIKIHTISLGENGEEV
The assay is described as follows: α1a adrenergic receptor binding, [3H]prazocine. The procedure:
The affinities of AT, NT, (+)-E-10-OH-NT and (−)-E-OH-NT for the α1a, α1b, α2a, α2b, and α2c adrenergic receptors was tested. Affinity for the α1a adrenergic receptor was tested using membranes prepared from rat salivary gland. [^3H]Prazocine (0.06 nM) was incubated in the presence of various concentrations of test compounds with the membranes for 1 hour at 22° C. Nonspecific binding was determined in the presence of 10 μM phentolamine. Bound radioactivity was determined by scintillation spectroscopy.

[7] abbreviates: read-out: Affinity at α1a adrenergic receptor, Ki.

Consider four compounds from US20120178815A1, “Compositions of (-)-E-10-OH-NT and Methods for Their Synthesis and Use” (Adolor Corporation, priority 2007, published 2012).

Where two headings read alike, the source gives them in different places. Bounds are passed on as bounds.

T1 sequence (P23977 whole entry): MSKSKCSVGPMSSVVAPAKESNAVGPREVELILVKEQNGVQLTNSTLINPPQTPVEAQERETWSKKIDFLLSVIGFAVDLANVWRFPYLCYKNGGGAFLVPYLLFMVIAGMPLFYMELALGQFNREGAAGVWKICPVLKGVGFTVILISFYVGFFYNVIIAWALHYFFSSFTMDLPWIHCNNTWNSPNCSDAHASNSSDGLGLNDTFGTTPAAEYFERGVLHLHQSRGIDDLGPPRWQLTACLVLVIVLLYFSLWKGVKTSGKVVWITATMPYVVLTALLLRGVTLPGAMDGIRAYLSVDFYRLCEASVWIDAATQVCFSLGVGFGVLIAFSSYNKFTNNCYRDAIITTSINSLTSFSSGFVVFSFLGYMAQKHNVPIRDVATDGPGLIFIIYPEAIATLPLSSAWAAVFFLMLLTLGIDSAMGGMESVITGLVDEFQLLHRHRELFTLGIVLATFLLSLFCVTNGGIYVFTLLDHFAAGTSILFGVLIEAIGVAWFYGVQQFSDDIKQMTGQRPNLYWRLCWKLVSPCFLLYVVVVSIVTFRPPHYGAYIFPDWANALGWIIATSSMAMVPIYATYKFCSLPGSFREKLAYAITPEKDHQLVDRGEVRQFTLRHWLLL
T4 sequence (Q01959 whole entry): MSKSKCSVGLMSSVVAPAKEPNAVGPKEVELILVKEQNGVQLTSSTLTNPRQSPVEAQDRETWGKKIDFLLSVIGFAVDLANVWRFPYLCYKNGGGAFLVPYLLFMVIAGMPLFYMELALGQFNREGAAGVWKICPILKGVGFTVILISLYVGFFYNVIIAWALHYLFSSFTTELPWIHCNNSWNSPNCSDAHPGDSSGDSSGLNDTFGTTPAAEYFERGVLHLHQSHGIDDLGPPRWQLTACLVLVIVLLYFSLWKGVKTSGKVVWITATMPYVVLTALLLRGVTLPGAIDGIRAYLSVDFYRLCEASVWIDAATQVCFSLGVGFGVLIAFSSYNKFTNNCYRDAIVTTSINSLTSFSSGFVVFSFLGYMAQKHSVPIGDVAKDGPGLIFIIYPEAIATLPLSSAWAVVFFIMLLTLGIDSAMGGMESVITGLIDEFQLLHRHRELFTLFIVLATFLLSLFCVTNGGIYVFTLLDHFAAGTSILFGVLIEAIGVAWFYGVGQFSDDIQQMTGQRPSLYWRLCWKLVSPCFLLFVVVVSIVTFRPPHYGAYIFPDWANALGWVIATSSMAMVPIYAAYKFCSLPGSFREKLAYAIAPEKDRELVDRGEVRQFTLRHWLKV

As for `CNCC/C=C1\c2ccccc2C[C@H](O)c2ccccc21` (stereo in doubt) [(+)-E-10-OH-NT], the inhibition at 10 µM in assay [1] is 19%; in assay [5], 25%. Besides, the half-maximal inhibitory concentration (IC50) in assay [1] was > 1 µM. Also, the Ki in assay [2] is 0.39 µM; in assay [3], 4.2 µM; in assay [5], > 1 µM; in assay [6] (setting [7]), 0.7 µM. For the same compound, the “activity in the forced swim test” value in assay [4] (doses up to 30 mg/kg IP) was “not active”.

`CNCC/C=C1\c2ccccc2C[C@@H](O)c2ccccc21` (stereo in doubt) [(−)-E-10-OH-NT]: the values for the inhibition at 10 µM in assay [1] and in assay [5] were 16% and 3%, respectively. Also, in assay [1], the IC50 is > 1 µM. Also, the Ki in assay [2] is 0.17 µM; in assay [3], 2.6 µM; in assay [5], > 1 µM; in assay [6] (setting [7]), 3 µM. Besides, the “increase in time spent swimming” value in assay [4] (10 mg/kg IP) is 64%; in assay [4] (30 mg/kg IP), 108%. The “amount of time spent climbing” value in assay [4] is “did not alter the amount of time spent climbing”.

In the case of `CN(C)CCC=C1c2ccccc2CCc2ccccc21` [AT, amitriptyline, reference compound], in assay [1], the IC50 was 2.4 µM. For the same compound, the Ki in assay [2] came out at 0.0036 µM; in assay [5] it was 2.1 µM; in assay [6] (setting [7]) it was 0.021 µM. The figures for the “increase in time spent swimming” value in assay [4] (10 mg/kg IP) and in assay [4] (30 mg/kg IP) were 81% and 147%, respectively. Also, in assay [4], the “amount of time spent climbing” value is reported as “did not alter the amount of time spent climbing”.

With `CNCCC=C1c2ccccc2CCc2ccccc21` [NT, nortriptyline, reference compound], the IC50 in assay [1] is 1.7 µM. Besides, the Ki in assay [3] was 0.22 µM; in assay [6], 0.06 µM.
